Laboratory results from patent US20060069132A1, “Azolecarboxamide herbicides” (priority 2004, published 2006).

Tests used:
mustard = assay: Test E pre-/postemergence herbicide test; format: in vivo, Brassica nigra
Procedure, shortened: (§1)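 In this greenhouse assay, compounds in a solvent vehicle containing surfactant were applied pre- and postemergence, the latter to plants 2 to 18 cm high. Control was judged by eye after 12 to 14 days on a 0 to 100 scale.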

goosegrass = assay: Test E pre-/postemergence herbicide test; format: in vivo, Eleusine indica
Procedure, shortened: as §1

purple nutsedge = assay: Test E pre-/postemergence herbicide test; format: in vivo, Cyperus rotundus
Procedure, shortened: as §1

kochia = assay: Test E pre-/postemergence herbicide test; format: in vivo, Kochia scoparia; conditions: Preemergence
Procedure, shortened: as §1

common chickweed = assay: Test E pre-/postemergence herbicide test; format: in vivo, Stellaria media
Procedure, shortened: as §1

guineagrass = assay: Test E pre-/postemergence herbicide test; format: in vivo, Panicum maximum
Procedure, shortened: as §1

blackgrass = assay: Test C postemergence herbicide test; format: in vivo, Alopecurus myosuroides
Procedure, shortened: (§2)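 Ratings (0 = no effect, 100 = complete control) come from visual comparison with untreated plants after 12 to 14 days in the greenhouse. Treatment was postemergence at the 1- to 4-leaf stage (2–18 cm), or at the 2-leaf stage for the flooded paddy barnyardgrass.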

wheat = assay: Test C postemergence herbicide test; format: in vivo, Triticum aestivum
Procedure, shortened: as §2

broadleaf signalgrass = assay: Test E pre-/postemergence herbicide test; format: in vivo, Brachiaria platyphylla
Procedure, shortened: as §1

green foxtail = assay: Test C postemergence herbicide test; format: in vivo, Setaria viridis
Procedure, shortened: as §2

itchgrass = assay: Test E pre-/postemergence herbicide test; format: in vivo, Rottboellia cochinchinensis
Procedure, shortened: as §1

field bindweed = assay: Test E pre-/postemergence herbicide test; format: in vivo, Convolvulus arvensis
Procedure, shortened: as §1

barnyardgrass = assay: Test E pre-/postemergence herbicide test; format: in vivo, Echinochloa crus-galli
Procedure, shortened: as §1

[1] = Preemergence, 62 g ai/ha, scale 0 to 100
[2] = Preemergence, 125 g ai/ha, scale 0 (no effect) to 100 (complete control)
[3] = Preemergence, 250 g ai/ha, scale 0 (no effect) to 100 (complete control)
[4] = Preemergence, 500 g ai/ha, scale 0 (no effect) to 100 (complete control)
[5] = 250 g ai/ha, scale 0 (no effect) to 100 (complete control)
[6] = 500 g ai/ha, scale 0 (no effect) to 100 (complete control)
[7] = Postemergence, 500 g ai/ha, scale 0 to 100
[8] = Postemergence, 250 g ai/ha, scale 0 to 100, 0 no effect, 100 complete control
[9] = postemergence, 125 g ai/ha, scale 0 to 100
[10] = postemergence, 62 g ai/ha, scale 0 to 100
[11] = Postemergence, 250 g ai/ha, scale 0 to 100
[12] = Preemergence, 125 g ai/ha, scale 0 to 100

SMILES: CCNC(=O)c1cccc(NC(=O)c2cc(C(C)(C)C)nn2CC)n1 [Compound 144]
- Plant response rating, Black Mustard (mustard; [1]): 20
- Plant response rating, Black Mustard (mustard; [2]): 70
- Plant response rating, Black Mustard (mustard; [3]): 75
- Plant response rating, Black Mustard (mustard; [4]): 100
- Plant response rating, Goosegrass (goosegrass; [1]): 20
- Plant response rating, Goosegrass (goosegrass; [2]): 50
- Plant response rating, Goosegrass (goosegrass; [3]): 80
- Plant response rating, Goosegrass (goosegrass; [4]): 80
- Plant response rating, Nutsedge, Purple (purple nutsedge; [1]): 0
- Plant response rating, Nutsedge, Purple (purple nutsedge; [2]): 30
- Plant response rating, Nutsedge, Purple (purple nutsedge; [3]): 30
- Plant response rating, Nutsedge, Purple (purple nutsedge; [4]): 50
- Plant response rating, Kochia (kochia; 62 g ai/ha, scale 0 to 100): 0
- Plant response rating, Kochia (kochia; 125 g ai/ha, scale 0 (no effect) to 100 (complete control)): 60
- Plant response rating, Kochia (kochia; [5]): 90
- Plant response rating, Kochia (kochia; [6]): 90
- Plant response rating, Chickweed (common chickweed; [1]): 50
- Plant response rating, Chickweed (common chickweed; [2]): 90
- Plant response rating, Chickweed (common chickweed; [3]): 95
- Plant response rating, Chickweed (common chickweed; [4]): 95
- Plant response rating, Guineagrass (guineagrass; [1]): 10
- Plant response rating, Guineagrass (guineagrass; [2]): 20
- Plant response rating, Guineagrass (guineagrass; [3]): 60
- Plant response rating, Guineagrass (guineagrass; [4]): 80
- Blackgrass plant response rating (blackgrass; [7]): 40
- Plant response rating, Blackgrass (blackgrass; [8]): 40
- Plant response rating, Blackgrass (blackgrass; [9]): 30
- Plant response rating, Blackgrass (blackgrass; [10]): 30
- Wheat plant response rating (wheat; [7]): 30
- Plant response rating, Wheat (wheat; [8]): 30
- Plant response rating, Wheat (wheat; [9]): 30
- Plant response rating, Wheat (wheat; [10]): 20
- Plant response rating, Signalgrass (broadleaf signalgrass; [1]): 10
- Plant response rating, Signalgrass (broadleaf signalgrass; [2]): 20
- Plant response rating, Signalgrass (broadleaf signalgrass; [3]): 30
- Plant response rating, Signalgrass (broadleaf signalgrass; [4]): 50
- Foxtail, Green plant response rating (green foxtail; [7]): 60
- Plant response rating, Foxtail, Green (green foxtail; [8]): 60
- Plant response rating, Foxtail, Green (green foxtail; [9]): 60
- Plant response rating, Foxtail, Green (green foxtail; [10]): 40
- Plant response rating, Itchgrass (itchgrass; [1]): 20
- Plant response rating, Itchgrass (itchgrass; [2]): 70
- Plant response rating, Itchgrass (itchgrass; [3]): 70
- Plant response rating, Itchgrass (itchgrass; [4]): 75
- Plant response rating, Bindweed, Field (field bindweed; [1]): 0
- Plant response rating, Bindweed, Field (field bindweed; [3]): 50
- Plant response rating, Bindweed, Field (field bindweed; [4]): 80
- Plant response rating, Barnyardgrass (barnyardgrass; [1]): 30
- Plant response rating, Barnyardgrass (barnyardgrass; [2]): 60
- Plant response rating, Barnyardgrass (barnyardgrass; [3]): 80
- Plant response rating, Barnyardgrass (barnyardgrass; [4]): 90

SMILES: CCc1nn(C(C)(C)C)cc1C(=O)Nc1cc(C(=O)N(C)C)ccc1F [Compound 222, N-[5-[(dimethylamino)carbonyl]-2-fluorophenyl]-1-(1,1-dimethylethyl)-3-ethyl-1H-pyrazole-4-carboxamide]
- Plant response rating, Black Mustard (mustard; [7]): 95
- Plant response rating, Black Mustard (mustard; [11]): 95
- Plant response rating, Black Mustard (mustard; [1]): 90
- Plant response rating, Black Mustard (mustard; [12]): 100
- Plant response rating, Black Mustard (mustard; [3]): 100
- Plant response rating, Black Mustard (mustard; [4]): 100
- Plant response rating, Black Mustard (mustard; [9]): 90
- Plant response rating, Black Mustard (mustard; [10]): 90
- Plant response rating, Goosegrass (goosegrass; [7]): 90
- Plant response rating, Goosegrass (goosegrass; [11]): 90
- Plant response rating, Goosegrass (goosegrass; [1]): 60
- Plant response rating, Goosegrass (goosegrass; [12]): 75
- Plant response rating, Goosegrass (goosegrass; [3]): 90
- Plant response rating, Goosegrass (goosegrass; [4]): 95
- Plant response rating, Goosegrass (goosegrass; [9]): 75
- Plant response rating, Goosegrass (goosegrass; [10]): 60
- Plant response rating, Nutsedge, Purple (purple nutsedge; [11]): 30
- Plant response rating, Nutsedge, Purple (purple nutsedge; [1]): 10
- Plant response rating, Nutsedge, Purple (purple nutsedge; [12]): 40
- Plant response rating, Nutsedge, Purple (purple nutsedge; [3]): 70
- Plant response rating, Nutsedge, Purple (purple nutsedge; [4]): 80
- Plant response rating, Nutsedge, Purple (purple nutsedge; [9]): 10
- Plant response rating, Nutsedge, Purple (purple nutsedge; [10]): 10
- Plant response rating, Kochia (kochia; 62 g ai/ha, scale 0 to 100): 30
- Plant response rating, Kochia (kochia; 125 g ai/ha, scale 0 to 100): 100
- Plant response rating, Kochia (kochia; [5]): 100
- Plant response rating, Kochia (kochia; [6]): 100
- Plant response rating, Chickweed (common chickweed; [7]): 100
- Plant response rating, Chickweed (common chickweed; [11]): 100
- Plant response rating, Chickweed (common chickweed; [1]): 80
- Plant response rating, Chickweed (common chickweed; [12]): 100
- Plant response rating, Chickweed (common chickweed; [3]): 100
- Plant response rating, Chickweed (common chickweed; [4]): 100
- Plant response rating, Chickweed (common chickweed; [9]): 100
- Plant response rating, Chickweed (common chickweed; [10]): 80
- Plant response rating, Guineagrass (guineagrass; [11]): 100
- Plant response rating, Guineagrass (guineagrass; [1]): 90
- Plant response rating, Guineagrass (guineagrass; [12]): 95
- Plant response rating, Guineagrass (guineagrass; [3]): 100
- Plant response rating, Guineagrass (guineagrass; [4]): 100
- Plant response rating, Guineagrass (guineagrass; [9]): 70
- Plant response rating, Guineagrass (guineagrass; [10]): 70
- Plant response rating, Signalgrass (broadleaf signalgrass; [7]): 85
- Plant response rating, Signalgrass (broadleaf signalgrass; [11]): 80
- Plant response rating, Signalgrass (broadleaf signalgrass; [1]): 10
- Plant response rating, Signalgrass (broadleaf signalgrass; [12]): 60
- Plant response rating, Signalgrass (broadleaf signalgrass; [3]): 95
- Plant response rating, Signalgrass (broadleaf signalgrass; [4]): 95
- Plant response rating, Signalgrass (broadleaf signalgrass; [9]): 40
- Plant response rating, Signalgrass (broadleaf signalgrass; [10]): 10
- Plant response rating, Itchgrass (itchgrass; [11]): 70
- Plant response rating, Itchgrass (itchgrass; [1]): 75
- Plant response rating, Itchgrass (itchgrass; [12]): 95
- Plant response rating, Itchgrass (itchgrass; [3]): 95
- Plant response rating, Itchgrass (itchgrass; [4]): 95
- Plant response rating, Itchgrass (itchgrass; [9]): 60
- Plant response rating, Itchgrass (itchgrass; [10]): 60
- Plant response rating, Bindweed, Field (field bindweed; [11]): 95
- Plant response rating, Bindweed, Field (field bindweed; [12]): 40
- Plant response rating, Bindweed, Field (field bindweed; [3]): 95
- Plant response rating, Bindweed, Field (field bindweed; [4]): 95
- Plant response rating, Bindweed, Field (field bindweed; [9]): 75
- Plant response rating, Bindweed, Field (field bindweed; [10]): 60
- Plant response rating, Barnyardgrass (barnyardgrass; [11]): 70
- Plant response rating, Barnyardgrass (barnyardgrass; [1]): 50
- Plant response rating, Barnyardgrass (barnyardgrass; [12]): 90
- Plant response rating, Barnyardgrass (barnyardgrass; [3]): 100
- Plant response rating, Barnyardgrass (barnyardgrass; [4]): 100
- Plant response rating, Barnyardgrass (barnyardgrass; [9]): 50
- Plant response rating, Barnyardgrass (barnyardgrass; [10]): 50
